Assay results reported in the supplement of paper PMC10307832.

What was measured:
Assay in all cases: relative viability (nuclei count vs DMSO), 5 days (fraction); higher = more cells survive
Linsitinib + OSI-027 = compound: C[C@]1(O)C[C@@H](c2nc(-c3ccc4ccc(-c5ccccc5)nc4c3)c3c(N)nccn32)C1 [Linsitinib] + COc1cccc2cc(-c3nc([C@H]4CC[C@H](C(=O)O)CC4)n4ncnc(N)c34)[nH]c12 [OSI-027] (partner 0.5 µM)
Method in brief: (§1)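 Relative viability was taken as the ratio of nuclei in treated wells to nuclei in vehicle wells. Lung cancer cell lines in 1536-well plates received compounds by pin tool one day after seeding, either one drug alone or a fixed anchor-drug dose plus five library-drug doses (not always all listed) in √10 steps. Nuclei were counted on 4× images after 5 days of treatment, and values are medians of duplicate plates.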

Linsitinib + Tozasertib = compound: C[C@]1(O)C[C@@H](c2nc(-c3ccc4ccc(-c5ccccc5)nc4c3)c3c(N)nccn32)C1 [Linsitinib] + Cc1cc(Nc2cc(N3CCN(C)CC3)nc(Sc3ccc(NC(=O)C4CC4)cc3)n2)n[nH]1 [Tozasertib] (partner 0.1 µM)
Method in brief: as §1

Ispinesib + Bortezomib = compound: Cc1ccc(C(=O)N(CCCN)[C@@H](c2nc3cc(Cl)ccc3c(=O)n2Cc2ccccc2)C(C)C)cc1 [Ispinesib] + CC(C)C[C@H](NC(=O)[C@H](Cc1ccccc1)NC(=O)c1cnccn1)B(O)O [Bortezomib] (partner 0.002 µM)
Method in brief: as §1

Ispinesib + Linsitinib = compound: Cc1ccc(C(=O)N(CCCN)[C@@H](c2nc3cc(Cl)ccc3c(=O)n2Cc2ccccc2)C(C)C)cc1 [Ispinesib] + C[C@]1(O)C[C@@H](c2nc(-c3ccc4ccc(-c5ccccc5)nc4c3)c3c(N)nccn32)C1 [Linsitinib] (partner 1 µM)
Method in brief: as §1

Row | Cell Line | relative viability (Linsitinib + OSI-027; first compound 0.01 µM) | relative viability (Linsitinib + OSI-027; first compound 0.03162 µM) | relative viability (Linsitinib + OSI-027; first compound 0.1 µM) | relative viability (Linsitinib + OSI-027; first compound 0.3162 µM) | relative viability (Linsitinib + OSI-027; first compound 1 µM) | relative viability (Linsitinib + Tozasertib; first compound 0.01 µM) | relative viability (Linsitinib + Tozasertib; first compound 0.03162 µM) | relative viability (Linsitinib + Tozasertib; first compound 0.1 µM) | relative viability (Linsitinib + Tozasertib; first compound 0.3162 µM) | relative viability (Linsitinib + Tozasertib; first compound 1 µM) | relative viability (Ispinesib + Bortezomib; first compound 0.001 µM) | relative viability (Ispinesib + Bortezomib; first compound 0.003162 µM) | relative viability (Ispinesib + Bortezomib; first compound 0.01 µM) | relative viability (Ispinesib + Bortezomib; first compound 0.03162 µM) | relative viability (Ispinesib + Bortezomib; first compound 0.1 µM) | relative viability (Ispinesib + Linsitinib; first compound 0.001 µM) | relative viability (Ispinesib + Linsitinib; first compound 0.003162 µM) | relative viability (Ispinesib + Linsitinib; first compound 0.01 µM) | relative viability (Ispinesib + Linsitinib; first compound 0.03162 µM) | relative viability (Ispinesib + Linsitinib; first compound 0.1 µM)
1 | LCLC-97TM1 | 0.52 | 0.515 | 0.335 | 0.248 | 0.234 | 0.193 | 0.29 | 0.174 | 0.159 | 0.257 | 0.518 | 1.16 | 0.689 | 0.143 | 0.254 | 0.205 | 0.152 | 0.175 | 0.262 | 0.169
2 | LCLC-103H | 0.44 | 0.475 | 0.42 | 0.356 | 0.367 | 0.534 | 0.496 | 0.497 | 0.472 | 0.331 | 0.96 | 1.27 | 1.19 | 0.813 | 0.447 | 1.12 | 1.25 | 1.21 | 1.04 | 1.02
3 | LOU-NH91 | 0.714 | 0.704 | 0.7 | 0.712 | 0.527 | 0.705 | 0.642 | 0.708 | 0.531 | 0.594 | 0.507 | 0.507 | 0.575 | 0.444 | 0.395 | 0.875 | 0.908 | 0.887 | 0.695 | 0.677
4 | LU99A | 0.32 | 0.314 | 0.299 | 0.245 | 0.24 | 0.284 | 0.27 | 0.281 | 0.264 | 0.234 | 1.06 | 1.12 | 1.33 | 0.223 | 0.183 | 0.573 | 0.587 | 0.509 | 0.336 | 0.167
5 | LXF-289 | 0.769 | 0.757 | 0.795 |  | 0.515 | 0.184 | 0.193 | 0.196 |  | 0.148 | 0.993 | 0.992 | 1.14 | 0.799 | 0.118 | 0.914 | 0.987 | 1.09 | 0.936 | 0.542
6 | NCI-H23 | 0.722 | 0.64 | 0.606 | 0.206 | 0.251 | 0.365 | 0.485 | 0.372 | 0.437 | 0.331 | 0.977 | 1.09 | 1.6 | 0.331 | 0.241 | 0.568 | 0.559 | 0.707 | 0.618 | 0.28
7 | NCI-H322M | 0.547 | 0.47 | 0.531 | 0.361 | 0.384 | 0.44 | 0.455 | 0.568 | 0.399 | 0.463 | 1.38 | 1.33 | 1.41 | 0.722 | 0.757 | 0.966 | 0.945 | 1.01 | 0.569 | 0.921
8 | NCI-H441 | 0.672 | 0.616 | 0.546 | 0.307 | 0.312 | 0.612 | 1.08 | 0.671 | 0.509 | 0.404 | 0.48 | 0.668 | 0.4 | 0.41 | 0.228 | 0.465 | 0.771 | 0.346 | 0.163 | 0.173
9 | NCI-H460 | 0.736 | 0.646 | 0.701 | 0.507 | 0.304 | 0.476 | 0.381 | 0.508 | 0.328 | 0.367 | 1.53 | 1.48 |  | 0.793 | 0.0396 | 1.02 | 0.922 | 1.09 | 0.268 | 0.0336
10 | NCI-H520 | 0.232 | 0.188 | 0.25 |  | 0.332 | 0.426 | 0.39 | 0.494 |  | 0.408 | 0.568 | 0.706 | 0.541 | 0.218 | 0.242 | 1.13 | 0.957 | 1.08 | 0.245 | 0.232
11 | NCI-H596 | 0.7 | 0.694 | 0.802 | 0.674 | 0.448 | 0.889 | 0.948 | 0.822 | 0.724 | 0.812 | 1.14 | 1.22 | 1.12 | 1.08 | 0.463 | 1.29 | 0.988 | 1.17 | 1.06 | 0.551
12 | NCI-H647 | 0.679 | 0.658 | 0.582 |  | 0.428 | 0.342 | 0.262 | 0.319 |  | 0.217 | 0.98 | 0.849 | 0.655 | 0.16 | 0.167 | 1.2 | 1.26 | 0.949 | 0.607 | 0.144
13 | NCI-H650 | 0.524 | 0.527 | 0.541 | 0.256 | 0.27 | 0.762 | 0.786 | 0.699 | 0.502 | 0.601 | 0.875 | 1.25 | 0.826 | 0.582 | 0.355 | 0.995 | 0.958 | 0.887 | 0.358 | 0.245
14 | NCI-H661 | 0.732 | 0.651 | 0.652 | 0.6 | 0.516 | 0.361 | 0.383 | 0.335 | 0.308 | 0.368 | 0.821 | 0.78 | 0.688 | 0.771 | 0.665 | 0.535 | 0.528 | 0.462 | 0.494 | 0.605
15 | NCI-H727 | 0.609 | 0.597 | 0.608 | 0.347 | 0.358 | 0.643 | 0.67 | 0.689 | 0.623 | 0.523 |  | 1.71 | 1.21 | 0.762 | 0.337 |  | 0.303 | 0.235 | 0.244 | 0.223
16 | NCI-H838 | 0.323 | 0.42 | 0.312 |  | 0.189 | 0.277 | 0.209 | 0.295 |  | 0.221 | 0.745 | 0.9 | 0.991 | 0.674 | 0.23 | 1.09 | 1.17 | 1.29 | 0.92 | 0.256
17 | NCI-H1355 | 0.419 | 0.41 | 0.307 | 0.244 | 0.226 | 0.584 | 0.576 | 0.475 | 0.458 | 0.428 | 1.28 | 1.23 | 1.43 | 0.815 | 0.293 | 0.82 | 0.794 | 0.893 | 0.795 | 0.561
18 | NCI-H1437 | 0.874 | 0.885 | 1.02 | 0.853 | 0.893 | 0.388 | 0.352 | 0.444 | 0.333 | 0.451 | 0.451 | 0.608 | 0.592 | 0.487 | 0.134 | 1.12 | 1.28 | 1.54 | 0.995 | 0.303
19 | NCI-H1651 | 0.646 | 0.654 | 0.646 | 0.581 | 0.543 | 0.619 | 0.646 | 0.714 | 0.484 | 0.513 | 0.934 | 1.16 | 0.926 | 0.796 | 0.712 | 1.16 | 0.921 | 1.18 | 1.05 | 0.203
20 | NCI-H1666 | 0.772 | 0.957 | 0.759 | 0.476 | 0.434 | 0.595 | 0.628 | 0.587 | 0.545 | 0.434 | 0.704 | 0.761 | 0.64 | 0.305 | 0.321 | 1.05 | 0.907 | 0.833 | 0.767 | 0.408
21 | NCI-H1734 | 0.737 | 0.469 | 0.634 | 0.504 | 0.293 | 0.242 | 0.244 | 0.274 | 0.242 | 0.267 | 0.943 | 0.954 | 0.997 | 0.962 | 0.328 | 0.911 | 0.92 | 1 | 0.878 | 0.634
22 | NCI-H1755 | 0.681 | 0.77 | 0.737 | 0.356 | 0.487 | 0.585 | 0.587 | 0.569 | 0.375 | 0.514 | 0.975 | 1.07 | 1.01 | 0.605 | 0.249 | 1.03 | 1.1 | 1.14 | 0.906 | 0.422
23 | NCI-H1915 | 0.646 | 0.678 | 0.623 | 0.515 | 0.392 | 0.44 | 0.477 | 0.437 | 0.378 | 0.353 | 1.04 | 1.14 | 1.13 | 0.797 | 0.172 | 1.13 | 1.24 | 1.08 | 1.12 | 1.03
24 | NCI-H1975 | 0.68 | 0.738 | 0.722 | 0.544 | 0.347 | 0.691 | 0.677 | 0.865 | 0.665 | 0.311 | 0.471 | 0.437 | 0.331 | 0.19 | 0.261 | 1.01 | 0.946 | 1.06 | 0.508 | 0.189
25 | NCI-H1993 | 0.502 | 0.534 | 0.525 | 0.407 | 0.679 | 0.561 | 0.606 | 0.619 | 0.579 | 0.602 | 1.23 | 1.14 | 1.1 | 1.03 | 0.585 | 0.631 | 0.724 | 0.749 | 0.716 | 0.675
26 | NCI-H2009 | 0.746 | 0.646 | 0.696 |  | 0.428 | 0.72 | 0.63 | 0.743 |  | 0.629 | 1 | 0.986 | 0.854 | 0.189 | 0.261 | 1.28 | 1.18 | 1.29 | 0.957 | 0.475
27 | NCI-H2023 | 0.425 | 0.215 | 0.358 | 0.212 | 0.12 | 0.256 | 0.228 | 0.36 | 0.196 | 0.177 | 1 | 1.02 | 0.713 | 0.144 | 0.147 | 0.79 | 0.74 | 0.627 | 0.439 | 0.149
